Data from patent publication US20130029981A1, “COMPOUNDS, COMPOSITIONS, AND METHODS FOR CONTROLLING BIOFILMS” (Katholieke Universiteit Leuven, priority 2009, published 2013).

Test system: S. Typhimurium ATCC14028
Test: Static peg assay for prevention of biofilm formation (Calgary device, crystal violet)
Type: cell-based, Salmonella Typhimurium
Conditions: 25° C.; strain not given; read-out: IC(50), preventive activity against S. typhimurium biofilms
Procedure: (§1) Evaluation of the biofilm inhibitory activity of some substituted 2-amino-1H-imidazoles of the invention was carried out by growing up biofilms of S. Typhimurium ATCC14028 or SL1344 or Pseudomonas aeruginosa PA14 in the presence of different concentrations (1/2 dilution series) of biofilm inhibitors, by using the Calgary biofilm device. After an incubation period of 24 hours at 25° C. or 37° C. or 48 hours at 16° C. the biofilms were visualized by crystal violet staining. In the next step the stain was extracted from the biofilm with 30% acetic acid. The absorbance of the resolubilized stain at 570 nm is a measure of the amount of biofilm formed.
In examples 2 and 3, the following materials and methods were used.
The device used for biofilm formation is a platform carrying 96 polystyrene pegs (Nunc no. 445497) that fits as a microtiter plate lid with a peg hanging into each microtiter plate well (Nunc no. 269789). Biofilm formation assays were carried out at 16° C., 25° C. and 37° C.
For biofilm assays at 16° C. and 25° C., two-fold serial dilutions of the compounds in 100 μl liquid TSB 1/20 broth per well were prepared in the microtiter plate. Subsequently, an overnight culture of S. Typhimurium ATCC14028 or SL1344 (grown up in LB medium) was diluted 1:100 into TSB 1/20 broth and 100 μl (ca. 10^6 cells) was added to each well of the microtiter plates, resulting in a total amount of 200 μl medium per well. The pegged lid was placed on the microtiter plate and the plate was incubated for 48 hours at 16° C. or for 24 hours at 25° C. without shaking. During this incubation period biofilms were formed on the surface of the pegs. In case of the assay at 16° C., after 24 hours the lid was transferred into a new plate with medium and the specific molecules used for testing. […] For quantification of biofilm formation, the pegs were washed once in 200 μl phosphate buffered saline (PBS). The remaining attached bacteria were stained for 30 minutes with 200 μl 0.1% (w/v) crystal violet in an isopropanol/methanol/PBS solution (v/v 1:1:18). Excess stain was rinsed off by placing the pegs in a 96-well plate filled with 200 μl distilled water per well. After the pegs were air dried (30 min), the dye bound to the adherent cells was extracted with 30% glacial acetic acid (200 μl). The OD570 of each well was measured using the VERSAmax microtiter plate reader. The IC50 value for each compound was determined from concentration gradients in two or three independent experiments (with 2 or 3 repeats per experiment), by using the GraphPad software of Prism.
For biofilm assays at 37° C., two-fold serial dilutions of the compounds in 50 μl liquid CFA broth per well were prepared in the microtiter plate. Subsequently, an overnight culture of S. Typhimurium ATCC 14028 was diluted 1:100 into CFA broth and 100 μl (ca. 10^6 cells) was added to each well of the microtiter plates, resulting in a total amount of 150 μl medium per well. The pegged lid was placed on the microtiter plate and the plate was incubated for 24 hours at 37° C. without shaking. During incubation the plates were placed in a humidity controlled container to prevent evaporation of the growth medium. Quantification of biofilm formation was performed similarly as described above for the assays at 16° C. and 25° C.
as §1, with “imidazo[1,2-a]pyrimidinium bromide salts” for “2-amino-1H-imidazoles”

| Compound | IC50 |
| --- | --- |
| COc1ccc(-c2cn(CCNc3ncc(-c4ccc(Cl)c(Cl)c4)[nH]3)nn2)cc1 [R3=3,4-diClPh; R4=H; R9=p-MeOPh; n=2] | > 800 µM |
| CCCc1cn(CCNc2ncc(-c3ccc(Cl)c(Cl)c3)[nH]2)nn1 [R3=3,4-diClPh; R4=H; R9=propyl; n=2] | 35.6 µM |
| CCCc1cn(CCCNc2ncc(-c3ccc(Cl)c(Cl)c3)[nH]2)nn1 [R3=3,4-diClPh; R4=H; R9=propyl; n=3] | 31.8 µM |
| Clc1ccc(-c2cnc(NCCCn3cc(-c4ccsc4)nn3)[nH]2)cc1Cl [R3=3,4-diClPh; R4=H; R9=thiofuran; n=3] | 2 µM |
| CC(C)(N)c1cn(CCCNc2ncc(-c3ccc(Br)cc3)[nH]2)nn1 [R3=4-BrPh; R4=H; R9=C(CH3)2(NH2); n=3] | 30.9 µM |
| Brc1ccc(-c2cnc(NCCn3cc(C4CCCCC4)nn3)[nH]2)cc1 [R3=4-BrPh; R4=H; R9=c-hexyl; n=2] | 8.4 µM |
| Brc1ccc(-c2cnc(NCCn3cc(C4CC4)nn3)[nH]2)cc1 [R3=4-BrPh; R4=H; R9=c-propyl; n=2] | 2.02 µM |
| CCCCCCCc1cn(CCNc2ncc(-c3ccc(Br)cc3)[nH]2)nn1 [R3=4-BrPh; R4=H; R9=heptyl; n=2] | 189 µM |
| Cc1ccc(-c2cn(CCNc3ncc(-c4ccc(Br)cc4)[nH]3)nn2)cc1 [R3=4-BrPh; R4=H; R9=p-MePh; n=2] | > 800 µM |
| CCCCCc1ccc(-c2cn(CCCNc3ncc(-c4ccc(Br)cc4)[nH]3)nn2)cc1 [R3=4-BrPh; R4=H; R9=p-PenPh; n=3] | > 800 µM |
| COc1ccc(-c2cn(CCNc3ncc(-c4ccc(Br)cc4)[nH]3)nn2)cc1 [R3=4-BrPh; R4=H; R9=pMeOPh; n=2] | 91.2 µM |
| CCCc1cn(CCNc2ncc(-c3ccc(Br)cc3)[nH]2)nn1 [R3=4-BrPh; R4=H; R9=propyl; n=2] | 25.3 µM |
| CCCc1cn(CCCNc2ncc(-c3ccc(Br)cc3)[nH]2)nn1 [R3=4-BrPh; R4=H; R9=propyl; n=3] | 35.3 µM |
| Fc1ccc(-c2cnc(NCCn3cc(C4CCCC4)nn3)[nH]2)cc1 [R3=4-FPh; R4=H; R9=c-pentyl; n=2] | 128 µM |
| Fc1ccc(-c2cnc(NCCn3cc(C4CC4)nn3)[nH]2)cc1 [R3=4-FPh; R4=H; R9=c-propyl; n=2] | 93.3 µM |
| CC(C)(C)c1cn(CCNc2ncc(C(c3ccccc3)c3ccccc3)[nH]2)nn1 [R3=CHPh2; R4=H; R9=t-Butyl; n=2] | 30.9 µM |
| c1ccc(-c2cn(CCNc3ncc(-c4ccccc4)[nH]3)nn2)cc1 [R3=Ph; R4=H; R9=Phenyl; n=2] | 36.5 µM |
| c1ccc(-c2cn(CCCNc3ncc(-c4ccccc4)[nH]3)nn2)cc1 [R3=Ph; R4=H; R9=phenyl; n=3] | 40 µM |
| CCCCCc1cn(CCNc2nc(-c3ccc(C)cc3)c(-c3ccc(Cl)cc3)[nH]2)nn1 [R3=p-ClPh; R4=p-MePh; R9=Pentyl; n=2] | 371 µM |
| Cc1ccc(-c2nc(NCCn3cc(C4CCCC4)nn3)[nH]c2-c2ccc(Cl)cc2)cc1 [R3=p-ClPh; R4=p-MePh; R9=c-Pentyl; n=2] | 6.5 µM |
